Experimental data as given in publication PMC9691367, “The PROTAC selectively degrading Bcl-xL represents a novel Hedgehog pathway inhibitor with capacity of combating resistance to Smoothened inhibitors while sparing bone growth” (Theranostics, 2022).
Where “and” joins values, the source holds several entries; their conditions need not be identical. Equal entries are not always repeated. Where two headings read alike, the source gives them in different places.

Columns and labels:
Bcl-xL = Bcl-xL (Homo sapiens, UniProt Q07817); assay: Competitive fluorescence polarization assay, Bcl-xL / FAM-Bad; format: binding; conditions: Bcl-xL 5 nM, FAM-Bad 5 nM
Sequence of Bcl-xL (Q07817 whole entry, species assumed): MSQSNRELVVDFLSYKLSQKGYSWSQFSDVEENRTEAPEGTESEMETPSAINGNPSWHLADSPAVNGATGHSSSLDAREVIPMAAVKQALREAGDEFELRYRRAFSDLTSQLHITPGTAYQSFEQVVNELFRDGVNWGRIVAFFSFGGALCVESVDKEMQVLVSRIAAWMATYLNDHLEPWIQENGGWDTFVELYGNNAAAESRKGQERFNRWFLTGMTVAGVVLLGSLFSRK
Description: (§1) Competitive fluorescence polarization assays were carried out in black-walled plates in assay buffer (20 mM Na2HPO4 ·12H2O, 20 mM NaH2PO4·12H2O, 1 mM EDTA, 50 mM NaCl, 0.05% PF-68). The use of protein/peptide probe pairs was as follows: Bcl-xL (5 nM) and FAM-Bad (5 nM), Bcl-2 (100 nM) and FAM-Bax (5 nM), Mcl-1 (100 nM) and FAM-Bim (5 nM). Assay buffer, proteins, drugs, and peptides were added to the assay plates sequentially. The assay plates were slightly shaken for 3 min and incubated for 30 min at room temperature. The fluorescence polarization was measured on a Synergy 2 reader (BioTek).

Bcl-2 = Bcl-2 (Homo sapiens, UniProt P10415); assay: Competitive fluorescence polarization assay, Bcl-2 / FAM-Bax; format: binding; conditions: Bcl-2 100 nM, FAM-Bax 5 nM
Sequence of Bcl-2 (P10415 whole entry, species assumed): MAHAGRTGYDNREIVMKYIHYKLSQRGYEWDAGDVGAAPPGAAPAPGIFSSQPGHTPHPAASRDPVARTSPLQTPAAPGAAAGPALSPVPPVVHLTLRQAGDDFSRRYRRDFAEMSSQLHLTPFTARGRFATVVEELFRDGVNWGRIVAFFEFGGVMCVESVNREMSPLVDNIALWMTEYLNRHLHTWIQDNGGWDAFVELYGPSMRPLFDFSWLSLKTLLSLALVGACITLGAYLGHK
Description: as §1

Gli1 = assay: Western blot of Gli1 in light II cells; format: cell-based; conditions: 1 µM
Description: Cells were lysed in cell lysis buffer (50 mM Tris pH 8.0, 150 mM NaCl, 10% glycerol, 1 mM EDTA, 50 mM NaF, and 0.1% NP-40) supplemented with protease and phosphatase inhibitors. Total protein extracts of tissues were generated in radioimmunoprecipitation (RIPA) assay lysis buffer containing complete protease and phosphatase inhibitor cocktail. Protein content was quantified using the Pierce BCA Protein Assay Kit (#23225, Thermo Fisher Scientific). The proteins were separated by SDS-PAGE, electrophoretically transferred to polyvinylidene difluoride (PVDF) blotting membranes (#LC2002, Thermo Fisher Scientific), and subjected to routine immunoblot analysis with primary antibodies as follows: anti-Bcl-2 (#15071), anti-Mcl-1 (#94296), anti-VHL (#68547), anti-CRBN (#71810), and anti-Sufu (#2522) were obtained from Cell Signaling Technology (Danvers, Massachusetts, USA); anti-Bcl-xL (#ab32370), anti-Gli1 (#ab134906), and anti-Smoothened (#ab236465) were obtained from Abcam (Cambridge, CB2 0AX, UK); anti-GAPDH (#60004-1-Ig) and anti-β-tubulin (#10094-1-AP) were purchased from Proteintech Group, Inc. (Rosemont, IL 60018, USA). The results were quantified by densitometry using ImageJ software (NIH).

[1] = Pharmacokinetic study in male ICR mice; format: in vivo, mouse; conditions: for MRT last: read-out: MRT(0-t); for MRT inf: read-out: MRT(0-∞)
Description: Standard pharmacokinetic (PK) studies were conducted using male ICR Mice. A single 2 mg/kg intravenous (i.v.) injection, 10 mg/kg intraperitoneal (i.p.) injection or 10 mg/kg oral (p.o.) administration of SIAIS361034 was evaluated. Plasma concentrations of SIAIS361034 at each of the 7 time points (0.25 h, 0.5 h, 1 h, 2 h, 4 h, 8 h, and 24 h post dosing) are the average values from 3 animals.

[2] = male ICR mice, 2 mg/kg IV, individual animals (Mouse 1-3), 2 mg/kg
[3] = male ICR mice, 10 mg/kg IP, individual animals (Mouse 1-3), 10 mg/kg
[4] = male ICR mice, 10 mg/kg PO, individual animals (Mouse 1, 3; Mouse 2 NA), 10 mg/kg
[5] = male ICR mice, 10 mg/kg PO, individual animals (Mouse 1-3), 10 mg/kg
[6] = male, ICR, mouse, plasma, ip, 10 mg/kg, male ICR mice, 10 mg/kg IP, individual animals (Mouse 1-3)
[7] = male, ICR, mouse, plasma, ip, 10 mg/kg, male ICR mice, 10 mg/kg IP, mean of 3 animals
[8] = male, ICR, mouse, plasma, iv, 2 mg/kg, male ICR mice, 2 mg/kg IV, individual animals (Mouse 1-3)
[9] = male, ICR, mouse, plasma, iv, 2 mg/kg, male ICR mice, 2 mg/kg IV, mean of 3 animals
[10] = male, ICR, mouse, plasma, po, 10 mg/kg, male ICR mice, 10 mg/kg PO, mean

CC1(C)CCC(c2ccc(Cl)cc2)=C(CN2CCN(c3ccc(C(=O)NS(=O)(=O)c4ccc(NCCCN5CCN(CCCC#Cc6cccc7c6CN(C6CCC(=O)NC6=O)C7=O)CC5)c(S(=O)(=O)C(F)(F)F)c4)cc3)CC2)C1 (stereo not drawn) [SIAIS361034]
Ki (Bcl-xL): 37.3 nM
Ki (Bcl-2): 15.1 nM
Gli1 protein level (Gli1): decreased Gli1 protein level
AUC(0-t) [1, 2]: 6203 ng·h/mL and 4263 ng·h/mL
AUC(0-∞) [1, 2]: 6222 ng·h/mL and 4305 ng·h/mL
C0 [1, 2]: 34215 ng/mL and 79513 ng/mL and 43287 ng/mL
Cl [1, 2]: 5.35 mL/min/kg and 7.75 mL/min/kg
Cmax [1, 2]: 17900 ng/mL and 13200 ng/mL
MRT(0-t) [1, 2]: 0.30 h and 0.31 h
MRT(0-∞) [1, 2]: 0.40 h and 0.42 h
T1/2 [1, 2]: 1.79 h and 6.38 h and 2.29 h
Vss [1, 2]: 0.13 L/kg and 0.193 L/kg
Vz [1, 2]: 2.957 L/kg and 1.535 L/kg
AUC(0-t) [1, 3]: 20871 ng·h/mL and 15558 ng·h/mL
AUC(0-∞) [1, 3]: 22061 ng·h/mL and 16141 ng·h/mL
Cmax [1, 3]: 9700 ng/mL and 4920 ng/mL
F [1, 3]: 71.4% and 96.4% and 70.5%
MRT(0-t) [1, 3]: 5.16 h and 4.24 h
MRT(0-∞) [1, 3]: 6.68 h and 5.22 h
T1/2 [1, 3]: 5.23 h and 5.94 h
Tmax ([1]; male ICR mice, 10 mg/kg IP, individual animals (Mouse 1-3; 0.50 twice), 10 mg/kg): 0.50 h
AUC(0-∞) [1, 4]: 305 ng·h/mL and 111 ng·h/mL
MRT(0-∞) [1, 4]: 10.30 h and 2.82 h
T1/2 [1, 4]: 8.98 h and 2.39 h
F ([1]; male ICR mice, 10 mg/kg PO, individual animals (Mouse 1, 3; Mouse 2 and mean NA), 10 mg/kg): 1.33% and 0.484%
AUC(0-t) [1, 5]: 265 ng·h/mL and 213 ng·h/mL and 101 ng·h/mL
Cmax [1, 5]: 54.9 ng/mL and 49.1 ng/mL
MRT(0-t) [1, 5]: 6.29 h and 2.88 h and 2.01 h
Tmax ([1]; male ICR mice, 10 mg/kg PO, individual animals (Mouse 1-3; 1.00 twice), 10 mg/kg): 2.00 h
AUC(0-inf) [1, 6]: 16300 ng·h/mL
half-life [1, 6]: 6.44 h
AUC(0-t) ([1]; male, ICR, mouse, plasma, ip, 10 mg/kg, male ICR mice, 10 mg/kg IP, individual animals (Mouse 1-3), read-out: AUC(0-t)): 15500 ng·h/mL
Cmax ([1]; male, ICR, mouse, plasma, ip, 10 mg/kg, male ICR mice, 10 mg/kg IP, individual animals (Mouse 1-3), read-out: Cmax): 7630 ng/mL
MRT last [1, 6]: 3.84 h
MRT inf [1, 6]: 5.25 h
Tmax ([1]; male, ICR, mouse, plasma, ip, 10 mg/kg, male ICR mice, 10 mg/kg IP, individual animals (Mouse 1-3; 0.50 twice), read-out: Tmax): 1 h
AUC(0-inf) [1, 7]: 18200 ng·h/mL
bioavailability [1, 7]: 79.4%
half-life [1, 7]: 5.87 h
AUC(0-t) ([1]; male, ICR, mouse, plasma, ip, 10 mg/kg, male ICR mice, 10 mg/kg IP, mean of 3 animals, read-out: AUC(0-t)): 17300 ng·h/mL
Cmax ([1]; male, ICR, mouse, plasma, ip, 10 mg/kg, male ICR mice, 10 mg/kg IP, mean of 3 animals, read-out: Cmax): 7420 ng/mL
MRT last [1, 7]: 4.41 h
MRT inf [1, 7]: 5.72 h
Tmax ([1]; male, ICR, mouse, plasma, ip, 10 mg/kg, male ICR mice, 10 mg/kg IP, mean of 3 animals, read-out: Tmax): 0.67 h
AUC(0-inf) [1, 8]: 3200 ng·h/mL
clearance [1, 8]: 10.4 mL/min/kg
AUC(0-t) ([1]; male, ICR, mouse, plasma, iv, 2 mg/kg, male ICR mice, 2 mg/kg IV, individual animals (Mouse 1-3), read-out: AUC(0-t)): 3190 ng·h/mL
Cmax ([1]; male, ICR, mouse, plasma, iv, 2 mg/kg, male ICR mice, 2 mg/kg IV, individual animals (Mouse 1-3), read-out: Cmax): 10300 ng/mL
MRT last [1, 8]: 0.22 h
MRT inf [1, 8]: 0.26 h
Vd ([1]; male, ICR, mouse, plasma, iv, 2 mg/kg, male ICR mice, 2 mg/kg IV, individual animals (Mouse 1-3), read-out: Vss): 0.163 L/kg
Vd ([1]; male, ICR, mouse, plasma, iv, 2 mg/kg, male ICR mice, 2 mg/kg IV, individual animals (Mouse 1-3), read-out: Vz): 1.61 L/kg
Tmax ([1]; male, ICR, mouse, plasma, iv, 2 mg/kg, male ICR mice, 2 mg/kg IV, individual animals (Mouse 1-3, same value), read-out: Tmax): 0.083 h
AUC(0-inf) [1, 9]: 4580 ng·h/mL
clearance [1, 9]: 7.83 mL/min/kg
half-life [1, 9]: 3.49 h
AUC(0-t) ([1]; male, ICR, mouse, plasma, iv, 2 mg/kg, male ICR mice, 2 mg/kg IV, mean of 3 animals, read-out: AUC(0-t)): 4550 ng·h/mL
C0 ([1]; male, ICR, mouse, plasma, iv, 2 mg/kg, male ICR mice, 2 mg/kg IV, mean of 3 animals, read-out: C0): 52300 ng/mL
Cmax ([1]; male, ICR, mouse, plasma, iv, 2 mg/kg, male ICR mice, 2 mg/kg IV, mean of 3 animals, read-out: Cmax): 13800 ng/mL
MRT last [1, 9]: 0.28 h
MRT inf [1, 9]: 0.36 h
Tmax ([1]; male, ICR, mouse, plasma, iv, 2 mg/kg, male ICR mice, 2 mg/kg IV, mean of 3 animals, read-out: Tmax): 0.083 h
Vd ([1]; male, ICR, mouse, plasma, iv, 2 mg/kg, male ICR mice, 2 mg/kg IV, mean of 3 animals, read-out: Vss): 0.162 L/kg
Vd ([1]; male, ICR, mouse, plasma, iv, 2 mg/kg, male ICR mice, 2 mg/kg IV, mean of 3 animals, read-out: Vz): 2.03 L/kg
Cmax ([1]; male, ICR, mouse, plasma, po, 10 mg/kg, male ICR mice, 10 mg/kg PO, individual animals (Mouse 1-3), read-out: Cmax): 50.9 ng/mL
Tmax ([1]; male, ICR, mouse, plasma, po, 10 mg/kg, male ICR mice, 10 mg/kg PO, individual animals (Mouse 1-3; 1.00 twice), read-out: Tmax): 1 h
AUC(0-inf) [1, 10]: 208 ng·h/mL
half-life [1, 10]: 5.68 h
AUC(0-t) ([1]; male, ICR, mouse, plasma, po, 10 mg/kg, male ICR mice, 10 mg/kg PO, mean of 3 animals, read-out: AUC(0-t)): 193 ng·h/mL
Cmax ([1]; male, ICR, mouse, plasma, po, 10 mg/kg, male ICR mice, 10 mg/kg PO, mean of 3 animals, read-out: Cmax): 51.6 ng/mL
MRT last ([1]; male, ICR, mouse, plasma, po, 10 mg/kg, male ICR mice, 10 mg/kg PO, mean of 3 animals): 3.73 h
Tmax ([1]; male, ICR, mouse, plasma, po, 10 mg/kg, male ICR mice, 10 mg/kg PO, mean of 3 animals, read-out: Tmax): 1.33 h
MRT inf [1, 10]: 6.56 h
pharmacokinetic property, oral ([1]; mice, 10 mg/kg p.o.): poor pharmacokinetic property
plasma exposure ([1]; mice, single 10 mg/kg i.p. or 2 mg/kg i.v., over 24 h): good plasma exposure
